Values of other authors in patent US20040192658A1, “Compositions and methods of using collajolie” (Angiotech International AG, priority 2002, published 2004).

T1: interstitial collagenase (Homo sapiens, UniProt P03956)
T1 sequence (P03956 100-469): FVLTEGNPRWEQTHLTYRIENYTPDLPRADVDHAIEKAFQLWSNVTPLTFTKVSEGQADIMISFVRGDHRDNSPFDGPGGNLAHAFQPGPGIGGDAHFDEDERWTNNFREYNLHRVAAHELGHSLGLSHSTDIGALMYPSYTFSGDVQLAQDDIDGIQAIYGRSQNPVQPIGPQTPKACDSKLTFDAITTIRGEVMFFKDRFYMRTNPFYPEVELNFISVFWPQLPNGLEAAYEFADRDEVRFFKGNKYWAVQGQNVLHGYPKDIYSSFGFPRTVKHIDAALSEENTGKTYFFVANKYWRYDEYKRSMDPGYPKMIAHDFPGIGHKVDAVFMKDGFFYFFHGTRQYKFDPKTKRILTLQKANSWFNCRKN

T2: collagenase 1 (Homo sapiens, UniProt P03956)
T2 sequence (P03956 100-469): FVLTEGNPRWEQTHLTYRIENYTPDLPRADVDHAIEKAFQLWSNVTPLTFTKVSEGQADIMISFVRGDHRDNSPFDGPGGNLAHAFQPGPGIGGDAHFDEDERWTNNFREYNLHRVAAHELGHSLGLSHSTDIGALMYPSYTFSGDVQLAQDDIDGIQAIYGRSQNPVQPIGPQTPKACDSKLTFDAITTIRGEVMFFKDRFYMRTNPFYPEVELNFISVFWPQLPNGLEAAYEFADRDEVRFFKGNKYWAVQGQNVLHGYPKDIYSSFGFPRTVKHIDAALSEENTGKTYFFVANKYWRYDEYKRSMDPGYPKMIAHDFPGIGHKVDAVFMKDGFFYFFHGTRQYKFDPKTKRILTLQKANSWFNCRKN

T3: gelatinase A (Homo sapiens, UniProt P08253)
T3 sequence (P08253 110-660): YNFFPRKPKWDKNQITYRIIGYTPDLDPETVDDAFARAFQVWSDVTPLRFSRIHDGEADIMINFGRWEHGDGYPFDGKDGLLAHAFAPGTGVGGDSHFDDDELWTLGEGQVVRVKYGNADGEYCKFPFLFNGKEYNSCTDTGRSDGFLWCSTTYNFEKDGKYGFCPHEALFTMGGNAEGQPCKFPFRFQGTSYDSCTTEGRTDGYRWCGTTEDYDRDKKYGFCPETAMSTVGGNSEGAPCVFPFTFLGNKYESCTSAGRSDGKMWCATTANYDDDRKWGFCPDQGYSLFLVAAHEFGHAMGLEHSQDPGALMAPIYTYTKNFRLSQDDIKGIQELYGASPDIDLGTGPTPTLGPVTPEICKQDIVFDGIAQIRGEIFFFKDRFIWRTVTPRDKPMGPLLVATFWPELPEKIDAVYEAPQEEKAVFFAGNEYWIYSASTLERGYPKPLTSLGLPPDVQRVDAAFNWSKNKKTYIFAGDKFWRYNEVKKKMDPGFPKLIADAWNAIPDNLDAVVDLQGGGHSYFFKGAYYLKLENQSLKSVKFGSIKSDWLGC

B1: TIMP-3: 21 kD Tissue Inhibitor of Matrix Metalloproteinase (protein, UniProt P35625 24-211, looked up)
Metalloproteinase inhibitor 3: CTCSPSHPQDAFCNSDIVIRAKVVGKKLVKEGPFGTLVYTIKQMKMYRGFTKMPHVQYIHTEASESLCGLKLEVNKYQYLLTGRVYDGKMYTGLCNFVERWDQLTLSQRKGLNYRYHLGCNCKIKSCYYLPCFVTSKNECLWTDMLSNFGYPGYQSKHYACIRQKGGYCSWYRGWAPPDKSIINATDP

Key:
[1] = target: T1, interstitial collagenase; conditions: compared with TIMP-2
[2] = target: gelatinase B (Homo sapiens, UniProt P14780)
gelatinase B, sequence (P14780 94-707, species assumed): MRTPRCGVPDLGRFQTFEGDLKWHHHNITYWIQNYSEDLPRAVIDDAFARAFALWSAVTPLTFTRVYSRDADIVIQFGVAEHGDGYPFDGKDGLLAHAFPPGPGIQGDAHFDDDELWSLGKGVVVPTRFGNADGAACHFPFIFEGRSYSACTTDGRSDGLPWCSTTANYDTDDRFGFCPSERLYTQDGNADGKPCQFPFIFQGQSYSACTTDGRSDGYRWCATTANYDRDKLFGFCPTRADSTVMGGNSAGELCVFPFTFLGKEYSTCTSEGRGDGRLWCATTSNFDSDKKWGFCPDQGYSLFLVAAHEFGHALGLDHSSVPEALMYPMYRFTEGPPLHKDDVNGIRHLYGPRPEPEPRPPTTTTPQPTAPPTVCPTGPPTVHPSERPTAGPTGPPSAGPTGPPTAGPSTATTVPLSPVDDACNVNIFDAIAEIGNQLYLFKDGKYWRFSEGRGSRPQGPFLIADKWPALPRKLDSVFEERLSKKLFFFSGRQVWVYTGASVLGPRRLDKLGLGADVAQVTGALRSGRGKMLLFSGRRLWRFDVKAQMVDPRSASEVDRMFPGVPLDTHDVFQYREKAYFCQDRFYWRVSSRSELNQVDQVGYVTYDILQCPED

[3] = system: stromelysin
[4] = target: T2, collagenase 1
[5] = target: T3, gelatinase A

Row | Molecule | well tolerated daily dosage | established (well) tolerated single dose | also measured
1 | CNC(=O)[C@@H](NC(=O)[C@H](CC(C)C)[C@H](O)C(=O)NO)C(C)(C)C | – | – | established well tolerated single daily dose (single daily dose): 50 mg
2 | CN(C)[C@@H]1C(O)=C(C(N)=O)C(=O)[C@@]2(O)C(O)=C3C(=O)c4c(O)cccc4[C@@](C)(O)C3C[C@@H]12 (stereo in doubt) [tetracycline, 4-(dimethylamino)-1,4,4a,5,5a,6,11,12a-octahydro-3,6,10,12,12a-pentahydroxy-6-methyl-1,11-dioxo-2-naphthacenecarboxamide] | 1000 mg | 1000 mg | –
3 | CN1C(=O)N(C[C@H](C(=O)NO)[C@@H](CC2CCCC2)C(=O)N2CCCCC2)C(=O)C1(C)C [TROCADE] | – | 150 mg | –
4 | C[C@H]1c2cccc(O)c2C(=O)C2=C(O)[C@]3(O)C(=O)C(C(N)=O)=C(O)[C@@H](N(C)C)[C@@H]3[C@@H](O)[C@@H]21 [doxycycline, α-6-deoxy-5-hydroxy-tetracycline] | 100 mg | 200 mg | –
5 | CN(C)c1ccc(O)c2c1C[C@H]1C[C@H]3[C@H](N(C)C)C(O)=C(C(N)=O)C(=O)[C@@]3(O)C(O)=C1C2=O [minocycline, 7-dimethylamino-6-dimethyl-6-deoxytetracycline] | 200 mg | 200 mg | –
6 | TIMP-1: 30 kD Tissue Inhibitor of Matrix Metalloproteinase, the most commonly expressed TIMP molecule | – | – | inhibition of interstitial collagenase [1]: better inhibitor of interstitial collagenase than TIMP-2
7 | B1 | – | – | inhibition of gelatinase B [2]: inhibits; inhibition of stromelysin [3]: inhibits; inhibition of collagenase 1 [4]: inhibits; inhibition of gelatinase A [5]: inhibits
